Reference: patent US20240083919A1, “Metal Complexes and Methods for the Same” (Colgate-Palmolive Company, priority 2020, published 2024)
Values after ≈ are worked out from the molar mass of the structure shown. Like-named read-outs stand apart in the source and are kept apart here.

Key:
Trichophyton rubrum = experiment: MIC by doubling dilutions, visual turbidity, Trichophyton rubrum; format: cell-based; details: for MIC: about 35° C., 3 to 14 days, highest dilution that completely inhibited growth; for Final Dilution (Ratio): doubling dilutions from initial concentration 0.5% (CHA-Zn) or 1% (others)
Method: A suspension of Trichophyton rubrum was also prepared and exposed to each of the series of doubling dilutions. The samples were incubated at about 35° C. for 3 to 14 days or until growth was apparent in a growth control tube. Following incubation, each of the samples were visually examined for growth on the basis of turbidity. […] It should be appreciated that a relatively lower MIC value indicates a relatively greater efficacy against the microbe.

Malassezia furfur = experiment: MIC by doubling dilutions, visual turbidity, Malassezia furfur; format: cell-based; details: for MIC: about 35° C., 3 to 5 days, highest dilution that completely inhibited growth; for Final Dilution (Ratio): doubling dilutions from initial concentration 0.5% (CHA-Zn) or 1% (others)
Method: A suspension of Malassezia furfur was also prepared and exposed to each of the series of doubling dilutions. The samples were incubated at about 35° C. for 3 to 5 days or until growth was apparent in a growth control tube. Following incubation, each of the samples were visually examined for growth on the basis of turbidity.

Row | Compound | MIC (Trichophyton rubrum; read-out: MIC) [µg/mL] | Final Dilution (Ratio) (Trichophyton rubrum) | MIC (Malassezia furfur; read-out: MIC) [µg/mL] | Final Dilution (Ratio) (Malassezia furfur) | MIC (Malassezia furfur) [ppm] | MIC (Trichophyton rubrum) [ppm] | MIC (Malassezia furfur; listed as zinc nitrate) [ppm]
1 | CCCCCCCC(=O)NO [CHA, caprylhydroxamic acid] | ~156 (≈ 980 µM) | 64 | ~312 (≈ 1960 µM) | 32 |  |  | 
2 | Cc1cc(CC(C)CC(C)(C)C)n(O)c(=O)c1.NCCO (stereo not drawn) [Piroctone Olamine] |  |  |  | 64 | 156 |  | 
3 | O=[N+]([O-])[O-].O=[N+]([O-])[O-].[Zn+2] [Zinc Nitrate (Zn(NO3)2), zinc nitrate] |  | 4 |  | 2 | >5000 | ~2500 | > 5000
4 | caprylhydroxamic-zinc complex [CHA-Zn complex] |  | 64 |  | 64 |  |  | 
5 | zinc pyrithione [Zinc pyrithione (ZPT)] |  | 512 |  |  |  | 20 | 
